Assay results as given in the CheMixHub drug solubility set.

Assay: xn = mol fraction of the nth substance listed, in the solute-free solvent

O=C1CCc2ccc(OCCCCN3CCN(c4cccc(Cl)c4Cl)CC3)cc2N1 + CCC(C)=O + CC(C)=O
solubility (g/100 g solution)
Conditions	278.15 K	283.15 K	288.15 K	293.15 K	298.15 K	303.15 K	308.15 K	313.15 K	318.15 K
x2 = 0.1	0.779	0.97	1.13	1.44	1.75	2.16	2.61	3.34	4.18
x2 = 0.2	0.882	1.07	1.25	1.61	1.94	2.32	2.83	3.58	4.41
x2 = 0.3	0.948	1.16	1.34	1.71	2.09	2.46	3.02	3.74	4.62
x2 = 0.4	1.01	1.22	1.43	1.78	2.19	2.59	3.21	3.88	4.8
x2 = 0.5	1.05	1.28	1.5	1.86	2.28	2.71	3.34	4.01	4.96
x2 = 0.6	1.09	1.34	1.57	1.93	2.36	2.82	3.46	4.13	5.1
x2 = 0.7	1.12	1.38	1.63	1.99	2.43	2.91	3.54	4.23	5.21
x2 = 0.8	1.15	1.43	1.68	2.06	2.49	2.99	3.62	4.3	5.27
x2 = 0.9	1.17	1.47	1.72	2.12	2.54	3.06	3.68	4.35	5.31

O=C(O)C1CSCN1 (stereo not drawn) + O + CC#N
solubility (g/100 g solution)
Conditions	x2 = 0.1	x2 = 0.2	x2 = 0.3	x2 = 0.4	x2 = 0.5	x2 = 0.6	x2 = 0.7	x2 = 0.8	x2 = 0.9
283.15 K	0.0141	0.0241	0.0323	0.084	0.183	0.365	0.573	0.965	1.4
293.15 K	0.0189	0.0303	0.0491	0.106	0.242	0.433	0.729	1.24	1.89
303.15 K	0.0244	0.0416	0.0643	0.129	0.312	0.533	0.901	1.58	2.4
313.15 K	0.0292	0.0548	0.0787	0.159	0.392	0.679	1.17	2.04	3.06
323.15 K	0.0343	0.0734	0.0978	0.192	0.492	0.805	1.52	2.62	3.94

Oc1ccc(Cl)c2cccnc12 + C1COCCO1 + CCO
solubility (g/100 g solution)
Conditions	278.15 K	283.15 K	288.15 K	293.15 K	298.15 K	303.15 K	308.15 K	313.15 K	318.15 K	323.15 K
x2 = 0.1156	2.02	2.27	2.73	3.17	3.66	4.34	5.1	5.96	7.04	8.35
x2 = 0.2585	3.35	3.86	4.46	5.19	6.15	7.28	8.38	9.82	11.4	13.3
x2 = 0.4396	4.92	5.68	6.53	7.56	8.72	10.3	11.9	13.8	15.9	18.2
x2 = 0.6765	6.81	7.83	8.96	10.3	11.8	13.8	15.8	17.9	20.5	23.3

O=C(O)c1cc([N+](=O)[O-])ccc1O + CO + O
solubility (g/100 g solution)
Conditions	278.15 K	283.15 K	288.15 K	293.15 K	298.15 K	303.15 K	308.15 K	313.15 K	318.15 K	323.15 K
x2 = 0.05881	0.117	0.173	0.235	0.287	0.359	0.429	0.505	0.603	0.726	0.877
x2 = 0.1233	0.41	0.537	0.709	0.886	1.08	1.29	1.53	1.79	2.1	2.45
x2 = 0.1942	1.03	1.3	1.61	2	2.42	2.83	3.35	3.9	4.5	5.22
x2 = 0.2727	2.03	2.54	3.13	3.79	4.57	5.28	6.22	7.27	8.39	9.67
x2 = 0.3599	4.15	4.74	5.63	6.73	7.94	9.14	10.4	11.7	13.1	14.6
x2 = 0.4576	7.29	8.14	9.16	10.4	11.9	13.4	15.2	17.1	19.2	21.5
x2 = 0.5675	9.53	10.8	12.5	14.2	15.9	17.6	19.5	21.5	23.6	25.8
x2 = 0.6923	11.6	12.9	14.7	17	19.2	21.1	23.1	25.2	27.2	29.4
x2 = 0.835	13.8	15.1	16.8	18.7	21.1	23.3	25.3	27.6	29.8	32.4

Nc1cncc(Cl)n1 + CCCO + O
solubility (g/100 g solution)
Conditions	278.15 K	283.15 K	288.15 K	293.15 K	298.15 K	303.15 K	308.15 K	313.15 K	318.15 K	323.15 K
x2 = 0.03225	–	–	–	–	–	–	–	–	–	0.0893
x2 = 0.06974	–	–	–	–	–	–	–	–	–	0.208
x2 = 0.1139	0.364	0.43	0.499	0.588	0.686	0.81	0.936	1.08	1.23	1.41
x2 = 0.1666	0.527	0.621	0.722	0.852	0.998	1.18	1.36	1.57	1.79	2.05
x2 = 0.2307	0.638	0.75	0.883	1.04	1.25	1.48	1.73	2.01	2.31	2.65
x2 = 0.3103	0.747	0.891	1.06	1.26	1.51	1.79	2.11	2.46	2.83	3.24
x2 = 0.4117	0.837	1.02	1.22	1.46	1.76	2.11	2.48	2.89	3.33	3.85
x2 = 0.5454	0.928	1.11	1.31	1.61	1.94	2.37	2.82	3.33	3.85	4.44
x2 = 0.7297	0.918	1.12	1.37	1.7	2.09	2.52	3.02	3.56	4.15	4.87
